Assay results taken from US7998995B2 (Exelixis Patent Company LLC, priority 2006, dated 2011).

What follows are compounds tested on T1, LXR (assay: Measured EC50 or IC50 for LXR (LXRα and/or LXRβ; assay and subtype not given)). Conditions: IC50 or EC50 class, subtype not specified.
T1 construct: fused on or other part: GST fused to the LBD in the FRET assay
Method: Measured EC50 or IC50 for LXR, and FXR for Compounds of the Invention
LXR and FXR activities for various compounds of the invention are presented in the following table; those compounds with EC50 or IC50 values <10 μM for at least one of LXRα, LXRβ or FXR are considered to be active. In the following Table, IC50 or EC50 data is represented as follows: A<1 μM, B=1-10 μm, and C>10 μM.

EC50 [nM]	SMILES
< 1000	CS(=O)(=O)c1cccc(-c2ccc(-n3cc(-c4ccsc4)nc3-c3cccc(Cl)c3Cl)cc2)c1 [Example 992, 2-(2,3-dichlorophenyl)-1-(3′-(methylsulfonyl)biphenyl-4-yl)-4-(thiophen-3-yl)-1H-imidazole]
1000 to 10000	Cc1cscc1-c1cn(-c2ccc(-c3cccc(S(C)(=O)=O)c3)cc2)c(-c2ccccc2C(F)(F)F)n1 [Example 993, 1-(3′-(methylsulfonyl)biphenyl-4-yl)-4-(4-methylthiophen-3-yl)-2-(2-(trifluoromethyl)phenyl)-1H-imidazole]
< 1000	Cn1cc(-c2cn(-c3ccc(-c4cccc(S(C)(=O)=O)c4)cc3)c(-c3ccccc3C(F)(F)F)n2)cn1 [Example 994, 1-methyl-4-(1-(3′-(methylsulfonyl)biphenyl-4-yl)-2-(2-(trifluoromethyl)phenyl)-1H-imidazol-4-yl)-1H-pyrazole]
< 1000	CS(=O)(=O)c1cccc(-c2ccc(-n3cc(-c4ccoc4)nc3-c3ccccc3C(F)(F)F)cc2)c1 [Example 995, 4-(furan-3-yl)-1-(3′-(methylsulfonyl)biphenyl-4-yl)-2-(2-(trifluoromethyl)phenyl)-1H-imidazole]
< 1000	CS(=O)(=O)c1cccc(-c2ccc(-n3cc(-c4ccsc4)nc3-c3ccccc3C(F)(F)F)cc2)c1 [Example 996, 1-(3′-(methylsulfonyl)biphenyl-4-yl)-4-(thiophen-3-yl)-2-(2-(trifluoromethyl)phenyl)-1H-imidazole]
< 1000	CS(=O)(=O)c1cccc(-c2ccc(-n3cc(-c4ccsc4)nc3-c3ccccc3Cl)c(Cl)c2)c1 [Example 997, 1-(3-chloro-3′-(methylsulfonyl)biphenyl-4-yl)-2-(2-chlorophenyl)-4-(thiophen-3-yl)-1H-imidazole]
< 1000	CS(=O)(=O)c1cccc(-c2ccc(-n3cc(N4CCC4)nc3-c3ccccc3C(F)(F)F)cc2)c1 [Example 998, 4-(azetidin-1-yl)-1-(3′-(methylsulfonyl)biphenyl-4-yl)-2-(2-(trifluoromethyl)phenyl)-1H-imidazole]
< 1000	CS(=O)(=O)c1cccc(-c2ccc(-n3cc(-n4cccn4)nc3-c3c(Cl)cccc3Cl)cc2)c1 [Example 999, 1-{2-(2,6-dichlorophenyl)-1-[3′-(methylsulfonyl)biphenyl-4-yl]-1H-imidazol-4-yl}-1H-pyrazole]
< 1000	Cc1nccn1-c1cn(-c2ccc(-c3cccc(S(C)(=O)=O)c3)cc2)c(-c2c(Cl)cccc2Cl)n1 [Example 1001, 2′-(2,6-dichlorophenyl)-2-methyl-1′-[3′-(methylsulfonyl)biphenyl-4-yl]-1′H-1,4′-biimidazole]
< 1000	CS(=O)(=O)c1cccc(-c2ccc(-n3cc(N4CCCC4)nc3-c3c(Cl)cccc3Cl)cc2)c1 [Example 1002, 2-(2,6-dichlorophenyl)-1-[3′-(methylsulfonyl)biphenyl-4-yl]-4-(pyrrolidin-1-yl)-1H-imidazole]
< 1000	CS(=O)(=O)c1cccc(-c2ccc(-n3cc(N4CCC(O)C4)nc3-c3ccccc3C(F)(F)F)cc2)c1 (stereo not shown) [Example 1003, 1-(1-(3′-(methylsulfonyl)biphenyl-4-yl)-2-(2-(trifluoromethyl)phenyl)-1H-imidazol-4-yl)pyrrolidin-3-ol]
< 1000	CS(=O)(=O)c1cccc(-c2ccc(-n3cc(N4CCCCC4)nc3-c3ccccc3C(F)(F)F)cc2)c1 [Example 1004, 1-(1-(3′-(methylsulfonyl)biphenyl-4-yl)-2-(2-(trifluoromethyl)phenyl)-1H-imidazol-4-yl)piperidine]
< 1000	CS(=O)(=O)c1cccc(-c2ccc(-n3cc(N4CCCC4=O)nc3-c3c(Cl)cccc3Cl)cc2)c1 [Example 1005, 1-{2-(2,6-dichlorophenyl)-1-[3′-(methylsulfonyl)biphenyl-4-yl]-1H-imidazol-4-yl}pyrrolidin-2-one]
< 1000	CS(=O)(=O)c1cccc(-c2ccc(-n3cc(-n4cnc(C#N)c4)nc3-c3ccccc3C(F)(F)F)cc2)c1 [Example 1008, 1′-(3′-(methylsulfonyl)biphenyl-4-yl)-2′-(2-(trifluoromethyl)phenyl)-1′H-1,4′-biimidazole-4-carbonitrile]
< 1000	CS(=O)(=O)c1cccc(-c2ccc(-n3cc(-n4cnc(CO)c4)nc3-c3ccccc3C(F)(F)F)cc2)c1 [Example 1009, (1′-(3′-(methylsulfonyl)biphenyl-4-yl)-2′-(2-(trifluoromethyl)phenyl)-1′H-1,4′-biimidazol-4-yl)methanol]
< 1000	CS(=O)(=O)c1cccc(-c2ccc(-n3cc(-n4cccc4C#N)nc3-c3ccccc3C(F)(F)F)cc2)c1 [Example 1010]
> 10000	CS(=O)(=O)c1cccc(-c2ccc(-n3cc(-c4ncco4)nc3-c3ccccc3C(F)(F)F)cc2)c1 [Example 1011, 2-(1-(3′-(methylsulfonyl)biphenyl-4-yl)-2-(2-(trifluoromethyl)phenyl)-1H-imidazol-4-yl)oxazole]

EC50 [nM]	SMILES
1000 to 10000	CS(=O)(=O)c1cccc(-c2ccc(-n3cc(-c4ncco4)nc3-c3ccccc3Cl)c(Cl)c2)c1 [Example 1012, 2-(1-(3-chloro-3′-(methylsulfonyl)biphenyl-4-yl)-2-(2-chlorophenyl)-1H-imidazol-4-yl)oxazole]
< 1000	Cc1csc(-c2cn(-c3ccc(-c4cccc(S(C)(=O)=O)c4)cc3)c(-c3c(Cl)cccc3Cl)n2)n1 [Example 1013, 2-(2-(2,6-dichlorophenyl)-1-(3′-(methylsulfonyl)biphenyl-4-yl)-1H-imidazol-4-yl)-4-methylthiazole]
< 1000	CS(=O)(=O)c1cccc(-c2ccc(-n3cc(-c4nccs4)nc3-c3c(Cl)cccc3Cl)cc2)c1 [Example 1014, 2-(2-(2,6-dichlorophenyl)-1-(3′-(methylsulfonyl)biphenyl-4-yl)-1H-imidazol-4-yl)thiazole]
< 1000	CS(=O)(=O)c1cccc(-c2ccc(-n3cc([C@H]4CCCN4)nc3-c3ccccc3C(F)(F)F)cc2)c1 [Example 1016, 1-(3′-(methylsulfonyl)biphenyl-4-yl)-4-((R)-pyrrolidin-2-yl)-2-(2-(trifluoromethyl)phenyl)-1H-imidazole]
< 1000	CC(C)(C)OC(=O)N1CCC[C@@H]1c1cn(-c2ccc(-c3cccc(S(C)(=O)=O)c3)cc2)c(-c2ccccc2C(F)(F)F)n1 [Example 1017, (R)-tert-butyl 2-(1-(3′-(methylsulfonyl)biphenyl-4-yl)-2-(2-(trifluoromethyl)phenyl)-1H-imidazol-4-yl)pyrrolidine-1-carboxylate]
> 10000	CC(=O)N1CCC[C@@H]1c1cn(-c2ccc(-c3cccc(S(C)(=O)=O)c3)cc2)c(-c2ccccc2C(F)(F)F)n1 [Example 1019, 1-((2R)-2-(1-(3′-(methylsulfonyl)biphenyl-4-yl)-2-(2-(trifluoromethyl)phenyl)-1H-imidazol-4-yl)pyrrolidin-1-yl)ethanone]
< 1000	CS(=O)(=O)c1cccc(-c2ccc(-n3cc(-c4n[nH]c(=O)o4)nc3-c3ccccc3C(F)(F)F)cc2)c1 [Example 1023, 5-(1-(3′-(methylsulfonyl)biphenyl-4-yl)-2-(2-(trifluoromethyl)phenyl)-1H-imidazol-4-yl)-1,3,4-oxadiazol-2(3H)-one]
< 1000	Cc1nnc(-c2cn(-c3ccc(-c4cccc(S(C)(=O)=O)c4)cc3)c(-c3ccccc3C(F)(F)F)n2)o1 [Example 1024, 2-methyl-5-(1-(3′-(methylsulfonyl)biphenyl-4-yl)-2-(2-(trifluoromethyl)phenyl)-1H-imidazol-4-yl)-1,3,4-oxadiazole]
< 1000	CS(=O)(=O)c1cccc(-c2ccc(-n3cc(-c4nnc(C(F)(F)F)o4)nc3-c3ccccc3Cl)c(Cl)c2)c1 [Example 1025, 2-(1-(3-chloro-3′-(methylsulfonyl)biphenyl-4-yl)-2-(2-chlorophenyl)-1H-imidazol-4-yl)-5-(trifluoromethyl)-1,3,4-oxadiazole]
< 1000	Cc1coc(-c2cn(-c3ccc(-c4cccc(S(C)(=O)=O)c4)cc3)c(-c3ccccc3C(F)(F)F)n2)n1 [Example 1026, methyl-2-(1-(3′-(methylsulfonyl)biphenyl-4-yl)-2-(2-(trifluoromethyl)phenyl)-1H-imidazol-4-yl)oxazole]
< 1000	CS(=O)(=O)c1cccc(-c2ccc(-n3cc(-c4cnco4)nc3-c3ccccc3Cl)c(Cl)c2)c1 [Example 1028, 5-(1-(3-chloro-3′-(methylsulfonyl)biphenyl-4-yl)-2-(2-chlorophenyl)-1H-imidazol-4-yl)oxazole]
< 1000	CS(=O)(=O)c1cccc(-c2ccc(-n3cc(C4(C#N)CCOCC4)nc3-c3ccccc3C(F)(F)F)cc2)c1 [Example 1031, 4-(1-(3′-methylsulfonyl)biphenyl-4-yl)-2-(2-(trifluoromethyl)phenyl-1H-imidazol-4-yl)tetrahydro-2H-pyran-4-carbonitrile]
< 1000	Cc1nc(-c2cn(-c3ccc(-c4cccc(S(C)(=O)=O)c4)cc3)c(-c3ccccc3C(F)(F)F)n2)no1 [Example 1032]
< 1000	Cn1oc(=O)nc1-c1cn(-c2ccc(-c3cccc(S(C)(=O)=O)c3)cc2)c(-c2ccccc2C(F)(F)F)n1 [Example 1034]
< 1000	CS(=O)(=O)c1cccc(-c2ccc(-n3cc(-c4nc(=O)o[nH]4)nc3-c3ccccc3C(F)(F)F)cc2)c1 [Example 1035]
< 1000	Cn1oc(=S)nc1-c1cn(-c2ccc(-c3cccc(S(C)(=O)=O)c3)cc2)c(-c2ccccc2C(F)(F)F)n1 [Example 1036]
> 10000	Cc1nsc(-c2cn(-c3ccc(-c4cccc(S(C)(=O)=O)c4)cc3)c(-c3ccccc3C(F)(F)F)n2)n1 [Example 1037]
